The values below are quoted from earlier work in publication PMC8745345, “Hydroxy Pentacyclic Triterpene Acid, Kaempferol, Inhibits the Human 5-Hydroxytryptamine Type 3A Receptor Activity” (International Journal of Molecular Sciences, 2022).

The structures appear in SMILES notation.

What is called IC50 is the concentration needed to halve the response being measured.

The subject of the series is 5-HT3A. Conditions: cited from earlier work.

As to `Cc1nccn1CC1CCc2c(c3ccccc3n2C)C1=O` (stereo not drawn) [ondansetron], the mode of antagonism entry is listed as “competitive antagonist”. For the same compound, the IC50 (5-HT3 antagonist potency) is 4.9 nM. In addition, the “efficacy of antagonist against I5-HT(100uM) of 5-HT3A” value (serotonin 100 uM) is about 100%.
